Experimental data published in PubChem BioAssay AID1963828 (Molecular Pharmacology Branch, DTP, NCI, 2024).

System: 991263-137-R1-J2-PDC complex spheroid viability
Assay: Anticancer human tumor 991263-137-R1-J2-PDC patient-derived colon adenocarcinoma cell line growth inhibition [POLQ]
Settings: for IC50: curve of first compound; for viability, T/C: stronger effect = lower value
Description: Multicellular complex tumor spheroid response to Polymerase (POL) inhibitors (novobiocin, ART-558, RP6685) in combination with a variety of drugs and investigational agents in selected tumor cell lines
The POL inhibitors (novobiocin, ART-558, and RP6685) were evaluated both individually and in combination with standard of care and investigational anticancer small molecules within a complex spheroid model of solid tumors. . Complex spheroids include a stromal component modeled by human endothelial cells (HUVEC) and fibroblasts modeled by human mesenchymal stem cells (MSCs). The concentration ranges selected for each drug and investigational agent were based upon clinically achievable concentrations if the clinical Cmax of the agent was known.
Compounds. The drugs and investigational agents: novobiocin (NSC847541), ART-558 (NSC835418), RP-6685 (NSC848927), peposertib (NSC802822), ceralasertib (NSC780249), elimusertib (NSC800525), camonsertib (NSC841442), AZD-1390 (NSC803789), olaparib (NSC753686), talazoparib (NSC767125), rucaparib (NSC756644), sotorasib (NSC818433), MRTX-1133 (NSC836407), SN-38 (NSC673596), topotecan (NSC609699), epotoside (NSC141540), doxorubicin (NSC123127), gemcitabine (NSC613327), 5-fluorouracil (NSC19893), paclitaxel (NSC125973), vemurafenib (NSC761431), MSA-2 (NSC828583), SN-011 (NSC837082), adavosertib (NSC754352), prexasertib (NSC758257), carboplatin (NSC241240) and oxaliplatin (NSC266046), were obtained from the National Cancer Institute (NCI) Developmental Therapeutics Program Chemical Repository (21). The FDA-approved anticancer drug set is available from the Developmental Therapeutics Program at https://dtp.cancer.gov/organization/dscb/obtaining/. […] The stock solutions were prepared in dimethyl sulfoxide (DMSO, Sigma-Aldrich, St. Louis, MO, cat. D2650), except for the platinum compounds which were prepared in saline (Quality Biological, Gaithersburg, MD, cat. 114-055-101), at 800-fold the tested concentration and stored at -70 degrees C prior to their use. All drugs and investigational agents were tested over a range starting from a high concentration at or near the clinical Cmax and decreasing in half-log increments. If the clinical Cmax for an agent had not been determined, the highest concentration tested was 10 microM, except for SN-38, which was tested at a high concentration of 1 microM.
Cell Culture. All cells were maintained in an incubator at 37 degrees C and 5% CO2 with 95% humidity. The PDC lines were cultured according to standard operating procedures established by the NCI PDMR (https://pdmr.cancer.gov). Table 3 of the manuscript, lists the cell lines along with the number of the three cell types plated to form the mct-spheroids and media for tumor cell growth. After thawing, all PDC lines, except 997537-175-T-J1-PDC and 415267-285-R-J2-PDC, were cultured in Matrigel-coated flasks prepared with a working solution of 1X Ham's F-12 nutrient mix, without supplementation (Thermo Fisher Scientific, cat. 11765054), 100 U/mL penicillin-streptomycin (Thermo Fisher Scientific, cat. 15140122), and 2.5% Matrigel (Corning Inc., Corning, NY, cat. 354248) for the first three passages. The two PDC lines 997537-175-T-J1-PDC and 415267-285-R-J2-PDC were cultured on uncoated flasks. The 857933-349-R-J2-PDC line was cultured in 6C/Colon 1B media containing advanced DMEM/F-12 (Thermo Fisher Scientific, cat. 12634028), 10 mM HEPES (Thermo Fisher Scientific, cat. 15630080), 1X GlutaMAX supplement (Thermo Fisher Scientific, cat. 35050061), 0.1 mg/mL primocin (InvivoGen, San Diego, CA, cat. ant-pm-2), 10% defined fetal bovine serum, heat inactivated (HyClone Laboratories Inc., Logan, UT, cat. SH30070.03HI), 50% L-WRN conditioned media (ATCC, cat. CRL-3276), 1.25 mM N-Acetyl-L-cysteine (Sigma-Aldrich, cat. A9165), 10 mM nicotinamide (Sigma-Aldrich, cat. N0636), 1X B-27 supplement (Thermo Fisher Scientific, cat. 17504044), 1X N-2 supplement (Thermo Fisher Scientific, cat. […]

[1] = second compound 0.0316 µM, first compound 0.0316 µM
[2] = second compound 0.0316 µM, first compound 0.1 µM
[3] = second compound 0.1 µM, first compound 0.0316 µM
[4] = second compound 0.1 µM, first compound 0.1 µM
[5] = second compound 0.316 µM, first compound 0.0316 µM
[6] = second compound 0.316 µM, first compound 0.1 µM
[7] = second compound 1 µM, first compound 0.0316 µM
[8] = second compound 1 µM, first compound 0.1 µM
[9] = second compound 3.16 µM, first compound 0.0316 µM
[10] = second compound 3.16 µM, first compound 0.1 µM
[11] = second compound 10 µM, first compound 0.0316 µM
[12] = second compound 10 µM, first compound 0.1 µM
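Also: spheroids exposed to compounds for 7 days before readout.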
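For viability, T/C in this document: 100% = DMSO vehicle control viability.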

CC[C@@]1(O)C(=O)OCc2c1cc1n(c2=O)Cc2cc3c(CN(C)C)c(O)ccc3nc2-1 + COC1C(OC(N)=O)C(O)C(Oc2ccc3c(O)c(NC(=O)c4ccc(O)c(CC=C(C)C)c4)c(=O)oc3c2C)OC1(C)C
IC50 (second compound 0.0316 µM): > 0.1 µM | IC50 (second compound 0.1 µM): > 0.1 µM | IC50 (second compound 0.316 µM): > 0.1 µM | IC50 (second compound 1 µM): > 0.1 µM | IC50 (second compound 3.16 µM): > 0.1 µM | IC50 (second compound 10 µM): > 0.1 µM | viability, T/C (second compound 0.0316 µM, first compound 0.000316 µM): 103% | viability, T/C (second compound 0.0316 µM, first compound 0.001 µM): 103% | viability, T/C (second compound 0.0316 µM, first compound 0.00316 µM): 106% | viability, T/C (second compound 0.0316 µM, first compound 0.01 µM): 103% | viability, T/C [1]: 100% | viability, T/C [2]: 87.3% | viability, T/C (second compound 0.1 µM, first compound 0.000316 µM): 105% | viability, T/C (second compound 0.1 µM, first compound 0.001 µM): 125% | viability, T/C (second compound 0.1 µM, first compound 0.00316 µM): 98.3% | viability, T/C (second compound 0.1 µM, first compound 0.01 µM): 79.6% | viability, T/C [3]: 86.4% | viability, T/C [4]: 71.4% | viability, T/C (second compound 0.316 µM, first compound 0.000316 µM): 110% | viability, T/C (second compound 0.316 µM, first compound 0.001 µM): 110% | viability, T/C (second compound 0.316 µM, first compound 0.00316 µM): 107% | viability, T/C (second compound 0.316 µM, first compound 0.01 µM): 100% | viability, T/C [5]: 102% | viability, T/C [6]: 84.5% | viability, T/C (second compound 1 µM, first compound 0.000316 µM): 82.4% | viability, T/C (second compound 1 µM, first compound 0.001 µM): 106% | viability, T/C (second compound 1 µM, first compound 0.00316 µM): 97.7% | viability, T/C (second compound 1 µM, first compound 0.01 µM): 93.2% | viability, T/C [7]: 75.7% | viability, T/C [8]: 86.4% | viability, T/C (second compound 3.16 µM, first compound 0.000316 µM): 93.9% | viability, T/C (second compound 3.16 µM, first compound 0.001 µM): 107% | viability, T/C (second compound 3.16 µM, first compound 0.00316 µM): 104% | viability, T/C (second compound 3.16 µM, first compound 0.01 µM): 112% | viability, T/C [9]: 98.6% | viability, T/C [10]: 87.7% | viability, T/C (second compound 10 µM, first compound 0.000316 µM): 92.8% | viability, T/C (second compound 10 µM, first compound 0.001 µM): 114% | viability, T/C (second compound 10 µM, first compound 0.00316 µM): 99.1% | viability, T/C (second compound 10 µM, first compound 0.01 µM): 95.3% | viability, T/C [11]: 110% | viability, T/C [12]: 88.5%

COc1cc(C2c3cc4c(cc3C(OC3OC5COC(C)OC5C(O)C3O)C3COC(=O)C23)OCO4)cc(OC)c1O (centres undefined) + COC1C(OC(N)=O)C(O)C(Oc2ccc3c(O)c(NC(=O)c4ccc(O)c(CC=C(C)C)c4)c(=O)oc3c2C)OC1(C)C
IC50 (second compound 0.0316 µM): > 10 µM | IC50 (second compound 0.1 µM): > 10 µM | IC50 (second compound 0.316 µM): > 10 µM | IC50 (second compound 1 µM): > 10 µM | IC50 (second compound 3.16 µM): > 10 µM | IC50 (second compound 10 µM): > 10 µM | viability, T/C [1]: 120% | viability, T/C [2]: 105% | viability, T/C (second compound 0.0316 µM, first compound 0.316 µM): 98.9% | viability, T/C (second compound 0.0316 µM, first compound 1 µM): 94.9% | viability, T/C (second compound 0.0316 µM, first compound 3.16 µM): 98.2% | viability, T/C (second compound 0.0316 µM, first compound 10 µM): 76.1% | viability, T/C [3]: 118% | viability, T/C [4]: 108% | viability, T/C (second compound 0.1 µM, first compound 0.316 µM): 118% | viability, T/C (second compound 0.1 µM, first compound 1 µM): 92% | viability, T/C (second compound 0.1 µM, first compound 3.16 µM): 95.9% | viability, T/C (second compound 0.1 µM, first compound 10 µM): 83.3% | viability, T/C [5]: 95.7% | viability, T/C [6]: 104% | viability, T/C (second compound 0.316 µM, first compound 0.316 µM): 96.1% | viability, T/C (second compound 0.316 µM, first compound 1 µM): 90.3% | viability, T/C (second compound 0.316 µM, first compound 3.16 µM): 84.8% | viability, T/C (second compound 0.316 µM, first compound 10 µM): 73.1% | viability, T/C [7]: 107% | viability, T/C [8]: 99.1% | viability, T/C (second compound 1 µM, first compound 0.316 µM): 100% | viability, T/C (second compound 1 µM, first compound 1 µM): 83.2% | viability, T/C (second compound 1 µM, first compound 3.16 µM): 106% | viability, T/C (second compound 1 µM, first compound 10 µM): 94% | viability, T/C [9]: 96.2% | viability, T/C [10]: 113% | viability, T/C (second compound 3.16 µM, first compound 0.316 µM): 109% | viability, T/C (second compound 3.16 µM, first compound 1 µM): 115% | viability, T/C (second compound 3.16 µM, first compound 3.16 µM): 97.6% | viability, T/C (second compound 3.16 µM, first compound 10 µM): 72.3% | viability, T/C [11]: 83.9% | viability, T/C [12]: 115% | viability, T/C (second compound 10 µM, first compound 0.316 µM): 98.9% | viability, T/C (second compound 10 µM, first compound 1 µM): 91.2% | viability, T/C (second compound 10 µM, first compound 3.16 µM): 101% | viability, T/C (second compound 10 µM, first compound 10 µM): 80.8%
